Assay results published in ChEMBL document CHEMBL1125955, “Synthesis of new disoxaril analogues with potent and selective anti-human rhinovirus 14 activity” (1991).
≈ marks a conversion by molar mass, not a printed value.

Tests used:
HeLa [1] = assay: Maximum testable level (antiviral activity) was evaluated in HeLa cells against human rhino virus; type: functional
Vero [2] = assay: Maximum testable level was evaluated in Vero cells that causes no apparent effects on cell monolayers.; type: functional, Chlorocebus sabaeus
Vero [3] = assay: Minimum inhibitory concentration (antiviral activity) was screened in Vero cells against Coxsackie B1 (Coxs); type: functional; conditions: Chlorocebus sabaeus
Vero [4] = assay: Minimum inhibitory concentration (antiviral activity) was screened in Vero cells against herpes simplex virus type 1 (HSV-1); type: functional; conditions: Chlorocebus sabaeus
Vero [5] = assay: Minimum inhibitory concentration (antiviral activity) was screened in Vero cells against polio type 1 (Sabin strain, Sb-1); type: functional; conditions: Chlorocebus sabaeus
[6] = Selectivity index was determined as ratio of maximum testable level to that of minimum inhibitory concentration; type: functional
HeLa [7] = assay: Minimum inhibitory concentration (antiviral activity) was evaluated n HeLa cells against human rhino virus; type: functional
[8] = Selectivity index was the ratio of maximum testable level to that of minimum inhibitory concentration in human rhino virus; type: functional
Vero [9] = assay: Minimum inhibitory concentration (antiviral activity) was screened in Vero cells against Vesicular Stomatitis virus (VSV); type: functional; conditions: Chlorocebus sabaeus
Vero [10] = assay: Minimum inhibitory concentration (antiviral activity) was screened in Vero cells against vaccinia virus (VV); type: functional; conditions: Chlorocebus sabaeus

SMILES | MTL (HeLa [1]) | MTL (Vero [2]) | MIC (Vero [3]) | MIC (Vero [4]) | MIC (Vero [5]) | Selectivity index [6] | MIC (HeLa [7]) | Selectivity index [8] | MIC (Vero [9]) | MIC (Vero [10])
Cn1cccc1C(=O)CCCCOc1ccc(C2=NCCO2)cc1 | >610 µM | >300 µM | > 300 µM | > 300 µM | 300 µM (≈ 97.9 µg/mL) | > 406 | 1.5 µM (≈ 0.49 µg/mL) | – | – | –
Cc1cc(CCCCCCCOc2ccc(C3=NCCO3)cc2)on1 [DISOXARIL] | >18 µM | – | – | – | – | – | 0.4 µM (≈ 0.137 µg/mL) | 45 | – | –
O=C(O)c1ccc(OCCCCCc2ccc(Cl)s2)cc1 | 20 µM | 60 µM | > 60 µM | > 60 µM | 20 µM (≈ 6.5 µg/mL) | – | > 20 µM | – | – | –
CCOC(=O)c1ccc(OCCCCC(=O)c2cc(C=O)n(C)c2)cc1 | >20 µM | 55 µM | – | > 55 µM | 5 µM (≈ 1.79 µg/mL) | – | 1.4 µM (≈ 0.5 µg/mL) | – | – | –
Cn1cc(C(=O)CCCCOc2ccc(C(=O)O)cc2)cc1C=O | >610 µM | 380 µM | > 380 µM | > 380 µM | 380 µM (≈ 125 µg/mL) | – | > 50 µM | – | – | –
O=C(CCCCOc1ccc(C2=NCCO2)cc1)c1ccc(Cl)s1 | >550 µM | >275 µM | > 275 µM | > 275 µM | 200 µM (≈ 72.8 µg/mL) | > 5500 | 0.1 µM (≈ 0.0364 µg/mL) | – | – | –
O=C(CCCCOc1ccc(C2=NCCO2)cc1)c1ccc[nH]1 | >640 µM | >175 µM | > 175 µM | > 175 µM | 60 µM (≈ 18.7 µg/mL) | – | 7.5 µM (≈ 2.34 µg/mL) | – | – | –
Clc1ccc(CCCCCOc2ccc(C3=NCCO3)cc2)s1 | >60 µM | 30 µM | > 30 µM | > 30 µM | 25 µM (≈ 8.75 µg/mL) | – | 2.8 µM (≈ 0.98 µg/mL) | – | – | –
CCOC(=O)c1ccc(OCCCCC(=O)c2ccc(C)o2)cc1 | 65 µM | >120 µM | 60 µM (≈ 19.8 µg/mL) | 75 µM (≈ 24.8 µg/mL) | 15 µM (≈ 4.96 µg/mL) | – | 2.4 µM (≈ 0.793 µg/mL) | – | > 120 µM | 30 µM (≈ 9.91 µg/mL)
Cn1cc(C(=O)CCCCOc2ccc(C3=NCCO3)cc2)cc1C=O | >565 µM | >280 µM | > 280 µM | > 280 µM | – | – | 20 µM (≈ 7.09 µg/mL) | – | – | –
O=C(O)c1ccc(OCCCCC(=O)c2ccc(Cl)s2)cc1 | >590 µM | >170 µM | > 170 µM | > 170 µM | 30 µM (≈ 10.2 µg/mL) | – | > 50 µM | – | – | –
CCOC(=O)c1ccc(OCCCCC(=O)c2ccc(Cl)s2)cc1 | >545 µM | >190 µM | > 190 µM | > 190 µM | 80 µM (≈ 29.3 µg/mL) | – | 0.4 µM (≈ 0.147 µg/mL) | >1362 | – | –
